This note sets out measurements from patent US20240360194A1, “New Peptides as Potent and Selective GIP Receptor Agonists” (Sanofi, priority 2021, published 2024).

SMILES strings stand for the structures. Numbered stars: 1 amine (or outer) side, 2 acyl side, 3 side chain; on linkers, the order of the positions; unused ones are H or OH. Square brackets hold non-standard residues; d marks the D form. Side chains are listed from the residue outwards. Peptide text beside a SMILES is read from it. * marks the point of attachment. C18 diacid = O=C(O)CCCCCCCCCCCCCCCCC(=O)*; γGlu = O=C(O)[C@H](CCC(=O)[*:2])N[*:1]; dIva = CC[C@@](C)(N)C(=O)O; AEEA = NCCOCCOCC(=O)O; Aib = CC(C)(N)C(=O)O

Series [1] in a line: ThT assay for the assessment of physical stability (fibrillation). To be noted: ThT buffer system A: 100 mM phosphate buffer pH 7.4; 3 mg/ml, 37° C., shaking. It is filed as physicochemical. An excerpt:
Low physical stability of a peptide solution may lead to amyloid fibril formation, which is observed as well-ordered, thread-like macromolecular structures in the sample, which eventually may lead to gel formation. Thioflavin T (ThT) is widely used to visualize and quantify the presence of misfolded protein aggregates [Biancalana et al., Biochim. Biophys. Acta 2010, 1804(7), 1405]. […] Enzymol. 1999, 309, 274]. The time course for fibril formation often follows the characteristic shape of a sigmoidal curve and can be separated into three regions: a lag phase, a fast growth phase, and a plateau phase. The typical fibril formation process starts with the lag phase in which the amount of partially folded peptide turned into fibrils is not significant enough to be detected. The lag-time corresponds to the time the critical mass of the nucleus is built. Afterwards, a drastic elongation phase follows, and fibril concentration increases rapidly. Investigations were carried out to determine fibrillation tendencies under stress conditions by shaking at 37° C. within Fluoroskan Ascent FL or Fluoroskan Ascent. For the tests in Fluoroskan Ascent (FL), 200 μl sample were placed into a 96-well mictrotiter plate PS, flat bottom, Greiner Fluotrac No. 655076. Plates were sealed with Scotch Tape (Qiagen). Samples were stressed by continuous cycles of 10 sec shaking at 960 rpm and 50 sec rest period at 37° C. The kinetic was monitored by measuring fluorescence intensity every 20 min. Peptides were diluted in a buffer system to a final concentration of 3 mg/ml. 20 μl of a 10.1 mM ThT solution in H2O were added to 2 ml of peptide solution to receive a final concentration of 100 μM ThT. For each sample eight replicates were tested. • ThT buffer system A) 100 mM phosphate buffer pH 7.4 • ThT buffer system B) 100 mM phosphate buffer pH 7.4, 2.7 mg/ml m-cresol Lag time in hours (h) in Thioflavin T (ThT) assay of peptide samples was determined in ThT buffer system A as described in Methods.

The target of the next series is T1, human GIP receptor (Homo sapiens, UniProt P48546).
T1 construct: human adipocytes endogenously expressing the human GIP receptor; host or cells: human preadipocytes (Lonza) differentiated to adipocytes
T1 sequence (P48546 22-466): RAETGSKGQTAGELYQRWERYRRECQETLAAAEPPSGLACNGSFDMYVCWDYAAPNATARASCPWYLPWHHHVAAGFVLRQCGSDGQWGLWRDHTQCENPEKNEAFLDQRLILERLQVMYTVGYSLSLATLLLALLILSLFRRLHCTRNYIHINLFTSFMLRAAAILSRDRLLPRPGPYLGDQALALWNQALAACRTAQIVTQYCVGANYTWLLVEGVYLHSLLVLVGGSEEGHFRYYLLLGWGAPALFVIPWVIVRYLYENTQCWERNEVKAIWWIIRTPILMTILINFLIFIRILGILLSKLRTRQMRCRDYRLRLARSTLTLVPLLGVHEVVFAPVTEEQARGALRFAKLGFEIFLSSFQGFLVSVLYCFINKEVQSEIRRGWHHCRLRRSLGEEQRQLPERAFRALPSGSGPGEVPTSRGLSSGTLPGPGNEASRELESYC
In words: In vitro cellular cAMP assay for GIP receptor efficacy (human adipocytes). To be noted: for EC50: read-out: hGIPR EC50; for Emax: read-out: hGIPR Emax. It is filed as cell-based. The gist of the method: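 cAMP is read by HTRF (665/620 nm ratio, 1 h after reagents in lysis buffer) following 30 min compound exposure at room temperature. Cells are human preadipocyte-derived adipocytes, differentiated 6 days with insulin, dexamethasone, IBMX (200 μM), PPARγ agonist and L-thyroxine, seeded 5000 per well.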
A general note: cAMP levels reflect the balance of adenylyl cyclase and phosphodiesterase activity.

In series [2] the target is T2, human GIP receptor (hGIPR) (Homo sapiens, UniProt P48546).
T2 sequence (P48546 22-466): T1 sequence (P48546 22-466)
The series can be described thus: Binding assay, displacement of [125I]GIP from HEK-293 membranes over-expressing GIPR (SPA). To be noted: [125I]GIP displacement. The gist of the method: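 Membranes from HEK-293 cells over-expressing human GIPR or GLP-1R, isolated by homogenising, sonicating and ultracentrifuging at 100000×g into HEPES/EDTA/NaCl buffer with protease inhibitors, were used for binding.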
A general note: Displacement assays read how much labelled ligand stays bound in the presence of the test substance.

`CC[C@H](C)[C@H](NC(=O)[C@H](CCCNC(=N)N)NC(=O)[C@H](CC(=O)O)NC(=O)[C@H](CCCCNC(=O)COCCOCCNC(=O)COCCOCCNC(=O)CC[C@H](NC(=O)CCCCCCCCCCCCCCCCC(=O)O)C(=O)O)NC(=O)C(C)(C)NC(=O)[C@@H](NC(=O)[C@H](CO)NC(=O)[C@H](CC(C)C)NC(=O)[C@H](CC(=O)O)NC(=O)[C@H](CO)NC(=O)[C@@H](NC(=O)[C@H](Cc1ccccc1)NC(=O)[C@@H](NC(=O)CNC(=O)[C@H](CCC(=O)O)NC(=O)C(C)(C)NC(=O)[C@@H](N)Cc1ccc(O)cc1)[C@@H](C)O)[C@@H](C)CC)[C@@H](C)CC)C(=O)N[C@@H](Cc1c[nH]cn1)C(=O)N[C@@H](CCC(N)=O)C(=O)NC(C)(C)C(=O)N[C@@H](CCC(=O)O)C(=O)N[C@@H](Cc1ccccc1)C(=O)N[C@H](C(=O)N[C@@H](CCC(=O)O)C(=O)N[C@@H](Cc1c[nH]c2ccccc12)C(=O)N[C@](C)(CC)C(=O)N[C@@H](CC(C)C)C(=O)N[C@@H](C)C(=O)N[C@@H](CCC(N)=O)C(=O)NCC(=O)N1CCC[C@H]1C(=O)N[C@@H](CO)C(=O)N[C@@H](CO)C(=O)NCC(=O)N[C@@H](C)C(=O)N1CCC[C@H]1C(=O)N1CCC[C@H]1C(=O)N1CCC[C@H]1C(=O)N[C@@H](CO)C(N)=O)[C@@H](C)CC` [SEQ ID NO: 31, H2N-Y-Aib-E-G-T-F-I-S-D-L-S-I-Aib-K[{AEEA}2-gGlu-C18OH]-D-R-I-H-Q-Aib-E-F-I-E-W-Iva-L-A-Q-G-P-S-S-G-A-P-P-P-S-NH2] (H-Y[Aib]EGTFISDLSI[Aib]K([AEEA-AEEA-γGlu-C18 diacid])DRIHQ[Aib]EFIEW[dIva]LAQGPSSGAPPPS-NH2): in series [1], the “Increase in FI” value was “no” and the “Lag time before increase” value is reported as above 45 h. Also, on human GIP receptor, the EC50 amounted to 0.7 nM and the Emax came out at 121%. This molecule also displayed an IC50 in series [2] of 0.3 nM.
The matching figures for `CC[C@H](C)[C@H](NC(=O)[C@H](CCCNC(=N)N)NC(=O)[C@H](CC(=O)O)NC(=O)[C@H](CC(C)C)NC(=O)C(C)(C)NC(=O)[C@@H](NC(=O)[C@H](CO)NC(=O)[C@H](CC(C)C)NC(=O)[C@H](CC(=O)O)NC(=O)[C@H](CO)NC(=O)[C@@H](NC(=O)[C@H](Cc1ccccc1)NC(=O)[C@@H](NC(=O)CNC(=O)[C@H](CCC(=O)O)NC(=O)C(C)(C)NC(=O)[C@@H](N)Cc1ccc(O)cc1)[C@@H](C)O)[C@@H](C)CC)[C@@H](C)CC)C(=O)N[C@@H](CCCCNC(=O)COCCOCCNC(=O)COCCOCCNC(=O)CC[C@H](NC(=O)CCCCCCCCCCCCCCCCC(=O)O)C(=O)O)C(=O)N[C@@H](CCC(N)=O)C(=O)NC(C)(C)C(=O)N[C@@H](CCC(=O)O)C(=O)N[C@@H](Cc1ccccc1)C(=O)N[C@H](C(=O)N[C@@H](CCC(=O)O)C(=O)N[C@@H](Cc1c[nH]c2ccccc12)C(=O)N[C@@H](CC(C)C)C(=O)N[C@@H](CC(C)C)C(=O)N[C@@H](C)C(=O)N[C@@H](CCC(N)=O)C(=O)NCC(=O)N1CCC[C@H]1C(=O)N[C@@H](CO)C(=O)N[C@@H](CO)C(=O)NCC(=O)N[C@@H](C)C(=O)N1CCC[C@H]1C(=O)N1CCC[C@H]1C(=O)N1CCC[C@H]1C(=O)N[C@@H](CO)C(N)=O)[C@@H](C)CC` [SEQ ID NO: 37, H2N-Y-Aib-E-G-T-F-I-S-D-L-S-I-Aib-L-D-R-I-K[{AEEA}2-gGlu-C18OH]-Q-Aib-E-F-I-E-W-L-L-A-Q-G-P-S-S-G-A-P-P-P-S-NH2] (H-Y[Aib]EGTFISDLSI[Aib]LDRIK([AEEA-AEEA-γGlu-C18 diacid])Q[Aib]EFIEWLLAQGPSSGAPPPS-NH2): “no”, above 45 h, 0.5 nM, 113% and 0.1 nM.

The term EC50 denotes the concentration at which the effect is half-maximal. By Emax is commonly meant the greatest response seen or fitted, relative to the assay's reference. The term IC50 denotes the concentration at which inhibition is half-maximal. A low value points to inhibition by little substance.
